From US10550105B2 (Ribon Therapeutics Inc., priority 2018, dated 2020) come the findings set out here.

The IC50 is the midpoint of a concentration-inhibition curve.

The assay deals with PARP7 (Homo sapiens (Human), UniProt Q7Z3E1). Briefly: Enzymatic assay for inhibition of PARP7: TR-FRET displacement of biotinylated Probe A from the TIPARP active site. Format: binding. The settings on record: Table A-1. The method, boiled down: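 Percent inhibition derives from the ratio of 665 to 615 nm emission, which reports how much Probe A remains bound to TIPARP. Plates sat 30 min at 25° C before the time-resolved read (320 nm excitation).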
PARP7, sequence (Q7Z3E1 whole entry): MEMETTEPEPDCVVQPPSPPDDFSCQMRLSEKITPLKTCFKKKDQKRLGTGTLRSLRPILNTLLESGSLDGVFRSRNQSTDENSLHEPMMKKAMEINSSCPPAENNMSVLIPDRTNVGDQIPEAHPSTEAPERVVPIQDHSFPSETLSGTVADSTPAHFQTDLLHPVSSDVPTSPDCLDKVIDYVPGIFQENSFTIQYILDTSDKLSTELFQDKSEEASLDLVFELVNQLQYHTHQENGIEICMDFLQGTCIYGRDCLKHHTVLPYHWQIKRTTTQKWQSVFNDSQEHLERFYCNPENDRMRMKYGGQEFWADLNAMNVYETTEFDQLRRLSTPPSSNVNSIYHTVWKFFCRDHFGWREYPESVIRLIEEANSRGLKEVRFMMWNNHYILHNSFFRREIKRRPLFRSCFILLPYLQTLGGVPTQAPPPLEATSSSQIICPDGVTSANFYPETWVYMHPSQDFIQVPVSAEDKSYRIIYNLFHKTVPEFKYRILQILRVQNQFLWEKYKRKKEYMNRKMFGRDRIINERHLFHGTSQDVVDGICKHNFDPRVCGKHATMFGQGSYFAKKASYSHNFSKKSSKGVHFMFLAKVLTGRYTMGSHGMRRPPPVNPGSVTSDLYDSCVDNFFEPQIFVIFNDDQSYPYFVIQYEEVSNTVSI
A general note: Time-resolved FRET reads energy transfer from a long-lived donor to a nearby acceptor.

The molecule `N#Cc1ccc(OC2CCC(NC(=O)COC[C@@H]3CCCN3c3cn[nH]c(=O)c3C(F)(F)F)CC2)nc1` (stereo partly drawn) [Example 47, N-[4-[(5-cyanopyridin-2-yl)oxy]cyclohexyl]-2-[[(2S)-1-[6-oxo-5-(trifluoromethyl)-1,6-dihydropyridazin-4-yl]pyrrolidin-2-yl]methoxy]acetamide] had a concentration for half-maximal inhibition (IC50) below 100 nM.

Molecule `O=c1[nH]ncc(N2Cc3cc(F)c(OCC4CCCN4)cc3C2)c1C(F)(F)F` (stereo not shown) [Example 48, 5-[5-fluoro-6-(pyrrolidin-2-ylmethoxy)-2,3-dihydro-1H-isoindol-2-yl]-4-(trifluoromethyl)-2,3-dihydropyridazin-3-one] yielded an IC50 below 100 nM.

Consider `CN1CCCC1COc1cc2c(cc1F)CN(c1cn[nH]c(=O)c1C(F)(F)F)C2` (stereo not shown) [Example 49, 5-[5-fluoro-6-[(1-methylpyrrolidin-2-yl)methoxy]-2,3-dihydro-1H-isoindol-2-yl]-4-(trifluoromethyl)-2,3-dihydropyridazin-3-one; formic acid], for which the half-inhibitory concentration (IC50) is below 100 nM.

`CC(=O)N1CCCC1COc1cc2c(cc1F)CN(c1cn[nH]c(=O)c1C(F)(F)F)C2` (stereo not shown) [Example 50, 5-[5-[(1-acetylpyrrolidin-2-yl)methoxy]-6-fluoro-2,3-dihydro-1H-isoindol-2-yl]-4-(trifluoromethyl)-2,3-dihydropyridazin-3-one] gave an IC50 below 100 nM.

In turn, `N#Cc1ccc(N2CCN(C(=O)c3cccc(OC[C@@H]4C[C@H](O)CN4c4cn[nH]c(=O)c4C(F)(F)F)c3)CC2)nc1` [Example 51] had an IC50 below 100 nM.

Molecule `N#Cc1ccc(N2CCN(C(=O)c3cccc(OC[C@@H]4C[C@@H](O)CN4c4cn[nH]c(=O)c4C(F)(F)F)c3)CC2)nc1` [Example 52] came in with an IC50 below 100 nM.

In turn, `O=c1[nH]ncc(N2Cc3cc(F)c(OC4CCNC4)cc3C2)c1C(F)(F)F` (stereo not shown) [Example 53, 5-(5-fluoro-6-(pyrrolidin-3-yloxy)isoindolin-2-yl)-4-(trifluoromethyl)pyridazin-3(2H)-one] registered an IC50 below 100 nM.

`CC(=O)N1CCC(Oc2cc3c(cc2F)CN(c2cn[nH]c(=O)c2C(F)(F)F)C3)C1` (stereo not shown) [Example 54, 5-(5-(1-acetylpyrrolidin-3-yloxy)-6-fluoroisoindolin-2-yl)-4-(trifluoromethyl)pyridazin-3(2H)-one] yielded an IC50 below 100 nM.

Take `CN1CCC(Oc2cc3c(cc2F)CN(c2cn[nH]c(=O)c2C(F)(F)F)C3)C1` (stereo not shown) [Example 55, 5-[5-fluoro-6-[(1-methylpyrrolidin-3-yl)oxy]-2,3-dihydro-1H-isoindol-2-yl]-4-(trifluoromethyl)-2,3-dihydropyridazin-3-one]: the half-inhibitory concentration (IC50) was below 100 nM.

On to `O=c1[nH]ncc(N2Cc3cc(F)c(OC4CCCNC4)cc3C2)c1C(F)(F)F` (stereo not shown) [Example 58, 5-[5-fluoro-6-(piperidin-3-yloxy)-2,3-dihydro-1H-isoindol-2-yl]-4-(trifluoromethyl)-2,3-dihydropyridazin-3-one], for which the IC50 was below 100 nM.

On to `O=c1[nH]ncc(N2Cc3ccc(F)cc3C2)c1Cl` [Example 59, 4-Chloro-5-(5-fluoro-2,3-dihydro-1H-isoindol-2-yl)-2,3-dihydropyridazin-3-one], for which the IC50 is below 100 nM.

The molecule `O=c1[nH]ncc(N2Cc3cccc(F)c3C2)c1Cl` [Example 60, 4-Chloro-5-(4-fluoro-2,3-dihydro-1H-isoindol-2-yl)-2,3-dihydropyridazin-3-one] showed an IC50 of 100 to 1000 nM.

Molecule `N#Cc1ccc(N2CCN(C(=O)c3cc(OCC4c5ccccc5CN4c4cn[nH]c(=O)c4C(F)(F)F)cnc3F)CC2)nc1` (stereo not shown) [Example 61, 6-(4-[[2-fluoro-5-([2-[6-oxo-5-(trifluoromethyl)-1,6-dihydropyridazin-4-yl]-2,3-dihydro-1H-isoindol-1-yl]methoxy)pyridin-3-yl]carbonyl]piperazin-1-yl)pyridine-3-carbonitrile] displayed an IC50 below 100 nM.

The molecule `N#Cc1cnc(N2CCN(C(=O)c3cc(OCC4c5ccccc5CN4c4cn[nH]c(=O)c4C(F)(F)F)cnc3F)CC2)nc1` (stereo not shown) [Example 62, 2-(4-[[2-fluoro-5-([2-[6-oxo-5-(trifluoromethyl)-1,6-dihydropyridazin-4-yl]-2,3-dihydro-1H-isoindol-1-yl]methoxy)pyridin-3-yl]carbonyl]piperazin-1-yl)pyrimidine-5-carbonitrile] came in with an IC50 below 100 nM.

Regarding `N#Cc1ccc(NCCC(=O)Nc2cncc(OCC3c4ccccc4CN3c3cn[nH]c(=O)c3C(F)(F)F)c2)nc1` (stereo not shown) [Example 63, 3-[(5-cyanopyridin-2-yl)amino]-N-[5-([2-[6-oxo-5-(trifluoromethyl)-1,6-dihydropyridazin-4-yl]-2,3-dihydro-1H-isoindol-1-yl]methoxy)pyridin-3-yl]propanamide], the 50% inhibitory concentration (IC50) is below 100 nM.

Molecule `N#Cc1cnc(N2CCN(C(=O)c3cncc(OC[C@@H]4CCCN4c4cn[nH]c(=O)c4C(F)(F)F)c3)CC2)nc1` [Example 65, 2-[4-[(5-[[(2S)-1-[6-oxo-5-(trifluoromethyl)-1,6-dihydropyridazin-4-yl]pyrrolidin-2-yl]methoxy]pyridin-3-yl)carbonyl]piperazin-1-yl]pyrimidine-5-carbonitrile] yielded an IC50 below 100 nM.

`N#Cc1ccc(N2CCN(C(=O)c3nccc(OC[C@@H]4CCCN4c4cn[nH]c(=O)c4C(F)(F)F)n3)CC2)nc1` [Example 66, 6-[4-[(4-[[(2S)-1-[6-oxo-5-(trifluoromethyl)-1,6-dihydropyridazin-4-yl]pyrrolidin-2-yl]methoxy]pyrimidin-2-yl)carbonyl]piperazin-1-yl]pyridine-3-carbonitrile]: the IC50 is below 100 nM.

`N#Cc1ccc(N2CCN(C(=O)c3cc(OC[C@@H]4CCCN4c4cn[nH]c(=O)c4C(F)(F)F)ccc3F)CC2)nc1` [Example 67, 6-[4-[(2-fluoro-5-[[(2S)-1-[6-oxo-5-(trifluoromethyl)-1,6-dihydropyridazin-4-yl]pyrrolidin-2-yl]methoxy]phenyl)carbonyl]piperazin-1-yl]pyridine-3-carbonitrile] gave an IC50 below 100 nM.

For the molecule `N#Cc1ccc(N2CCN(C(=O)c3ccnc(OC[C@@H]4CCCN4c4cn[nH]c(=O)c4C(F)(F)F)n3)CC2)nc1` [Example 68, 6-[4-[(2-[[(2S)-1-[6-oxo-5-(trifluoromethyl)-1,6-dihydropyridazin-4-yl]pyrrolidin-2-yl]methoxy]pyrimidin-4-yl)carbonyl]piperazin-1-yl]pyridine-3-carbonitrile], the IC50 was below 100 nM.

`N#Cc1ccc(N2CCN(C(=O)c3ccnc(OC[C@@H]4CCCN4c4cn[nH]c(=O)c4C(F)(F)F)c3)CC2)nc1` [Example 69, 6-[4-[(2-[[(2S)-1-[6-oxo-5-(trifluoromethyl)-1,6-dihydropyridazin-4-yl]pyrrolidin-2-yl]methoxy]pyridin-4-yl)carbonyl]piperazin-1-yl]pyridine-3-carbonitrile] showed an IC50 below 100 nM.

For `C[C@H]1C[C@@H](COc2cccc(C(=O)N3CCN(c4ccc(C#N)cn4)CC3)c2)N(c2cn[nH]c(=O)c2C(F)(F)F)C1` [Example 70, 6-[4-[(3-[[(2S,4S)-4-methyl-1-[6-oxo-5-(trifluoromethyl)-1,6-dihydropyridazin-4-yl]pyrrolidin-2-yl]methoxy]phenyl)carbonyl]piperazin-1-yl]pyridine-3-carbonitrile], the half-inhibitory concentration (IC50) is below 100 nM.

Molecule `N#Cc1ccc(N2CCN(C(=O)c3cccc(OCC4COCCN4c4cn[nH]c(=O)c4C(F)(F)F)c3)CC2)nc1` (stereo not shown) [Example 71, 6-(4-[[3-([4-[6-oxo-5-(trifluoromethyl)-1,6-dihydropyridazin-4-yl]morpholin-3-yl]methoxy)phenyl]carbonyl]piperazin-1-yl)pyridine-3-carbonitrile] gave an IC50 of 100 to 1000 nM.

In turn, `N#Cc1ccc(N2CCN(C(=O)c3cc(OC[C@@H]4CCCN4c4cn[nH]c(=O)c4C(F)(F)F)ccn3)CC2)nc1` [Example 73, 6-[4-[(4-[[(2S)-1-[6-oxo-5-(trifluoromethyl)-1,6-dihydropyridazin-4-yl]pyrrolidin-2-yl]methoxy]pyridin-2-yl)carbonyl]piperazin-1-yl]pyridine-3-carbonitrile] showed a half-inhibitory concentration (IC50) below 100 nM.

`N#Cc1ccc(N2CCN(C(=O)c3cncc(OC[C@@H]4CCCN4c4cn[nH]c(=O)c4C(F)(F)F)n3)CC2)nc1` [Example 74, 6-[4-[(6-[[(2S)-1-[6-oxo-5-(trifluoromethyl)-1,6-dihydropyridazin-4-yl]pyrrolidin-2-yl]methoxy]pyrazin-2-yl)carbonyl]piperazin-1-yl]pyridine-3-carbonitrile]: the IC50 is below 100 nM.

The molecule `C[C@@H]1C[C@@H](COc2cccc(C(=O)N3CCN(c4ccc(C#N)cn4)CC3)c2)N(c2cn[nH]c(=O)c2C(F)(F)F)C1` [Example 75, 6-[4-[(3-[[(2S,4R)-4-methyl-1-[6-oxo-5-(trifluoromethyl)-1,6-dihydropyridazin-4-yl]pyrrolidin-2-yl]methoxy]phenyl)carbonyl]piperazin-1-yl]pyridine-3-carbonitrile] displayed a 50% inhibitory concentration (IC50) below 100 nM.

For `N#Cc1ccc(N2CCN(C(=O)COC[C@@H]3CCCN3c3cn[nH]c(=O)c3C(F)(F)F)CC2)nc1` [Example 76, 6-[4-(2-[[(2S)-1-[6-oxo-5-(trifluoromethyl)-1,6-dihydropyridazin-4-yl]pyrrolidin-2-yl]methoxy]acetyl)piperazin-1-yl]pyridine-3-carbonitrile], the concentration for half-maximal inhibition (IC50) was below 100 nM.

As to `N#Cc1ccc(N2CCN(C(=O)CCCOC[C@@H]3CCCN3c3cn[nH]c(=O)c3C(F)(F)F)CC2)nc1` [Example 77, 6-[4-(4-[[(2S)-1-[6-oxo-5-(trifluoromethyl)-1,6-dihydropyridazin-4-yl]pyrrolidin-2-yl]methoxy]butanoyl)piperazin-1-yl]pyridine-3-carbonitrile], the IC50 was below 100 nM.

Molecule `C[C@H]1C[C@@H](COCCC(=O)N2CCN(c3ccc(C#N)cn3)CC2)N(c2cn[nH]c(=O)c2C(F)(F)F)C1` [Example 78, 6-[4-(3-[[(2S,4S)-4-methyl-1-[6-oxo-5-(trifluoromethyl)-1,6-dihydropyridazin-4-yl]pyrrolidin-2-yl]methoxy]propanoyl)piperazin-1-yl]pyridine-3-carbonitrile] registered an IC50 below 100 nM.
